From ChEMBL document CHEMBL1201862, “PubChem BioAssay data set” (2004)
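48-hour exposure; five concentrations; linearly interpolated endpoints. Here, GI50 denotes the concentration required for 50% inhibition of growth.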 Active and inactive are the calls of the source. Cut-off read from the data, not from the text of the source: active = GI50 up to about 1.1 µM and inactive = higher.

Experiments:
Experiment in all cases: NCI tumour cell line growth inhibition, 48 h
[1] = system: UACC-257
[2] = system: SNB-19
[3] = system: CCRF-CEM
[4] = system: OVCAR-4
[5] = system: MOLT-4
[6] = system: SR
[7] = system: OVCAR-3
[8] = system: TK-10
[9] = system: COLO 205
[10] = system: BT-549
[11] = system: Hs-578T
[12] = system: K562
[13] = system: RPMI-8226
[14] = system: T47D
[15] = system: SF-295
[16] = system: PC-3
[17] = system: Malme-3M
[18] = system: OVCAR-5
[19] = system: CAKI-1

| Compound | GI50 [1] | GI50 [2] | GI50 [3] | GI50 [4] | GI50 [5] | GI50 [6] | GI50 [7] | GI50 [8] | GI50 [9] | GI50 [10] | GI50 [11] | GI50 [12] | GI50 [13] | GI50 [14] | GI50 [15] | GI50 [16] | GI50 [17] | GI50 [18] | GI50 [19] |
| --- | --- | --- | --- | --- | --- | --- | --- | --- | --- | --- | --- | --- | --- | --- | --- | --- | --- | --- | --- |
| COc1c(C)c(OC)c2c(c1O)[C@@H]1[C@@H]3Cc4c(OC)c(C)c(OC)c(O)c4[C@H](CNC(=O)c4cnc5ccccc5n4)N3[C@@H](C#N)[C@H](C2)N1C | 2.96 nM (active) | 3.85 nM (active) | 0.798 nM (active) | 2 nM (active) | 0.689 nM (active) | 0.182 nM (active) | 2.14 nM (active) | 7.71 nM (active) | 1.19 nM (active) | 1.32 nM (active) | 1.34 nM (active) | 0.977 nM (active) | 0.634 nM (active) | 0.522 nM (active) | 2.96 nM (active) | 4.33 nM (active) | 1.3 nM (active) | 3.37 nM (active) | 5.36 nM (active) |
| CO/N=[N+](\[O-])NC(C)C | > 100000 nM (inactive) | > 100000 nM (inactive) | > 100000 nM (inactive) | > 100000 nM (inactive) | > 100000 nM (inactive) | > 100000 nM (inactive) | > 100000 nM (inactive) | > 100000 nM (inactive) | > 100000 nM (inactive) | > 100000 nM (inactive) | > 100000 nM (inactive) | > 100000 nM (inactive) | > 100000 nM (inactive) | > 100000 nM (inactive) | > 100000 nM (inactive) | > 100000 nM (inactive) | > 100000 nM (inactive) | > 100000 nM (inactive) | > 100000 nM (inactive) |
| CNN1C(=O)c2c(C)c(C)c(C#N)c(N)c2C1=O | > 100000 nM (inactive) | > 100000 nM (inactive) | > 100000 nM (inactive) | > 100000 nM (inactive) | > 100000 nM (inactive) | > 100000 nM (inactive) | > 100000 nM (inactive) | > 100000 nM (inactive) | > 100000 nM (inactive) | > 100000 nM (inactive) | > 100000 nM (inactive) | > 100000 nM (inactive) | > 100000 nM (inactive) | > 100000 nM (inactive) | > 100000 nM (inactive) | > 100000 nM (inactive) | > 100000 nM (inactive) | > 100000 nM (inactive) | > 100000 nM (inactive) |
| CC(=O)O[C@H]1C[C@@H](O[C@H]2[C@@H](O)C[C@H](O[C@H]3[C@@H](O)C[C@H](O[C@H]4CC[C@@]5(C)[C@H](CC[C@@H]6[C@@H]5C[C@@H](O)[C@]5(C)[C@@H](C7=CC(=O)OC7)CC[C@]65O)C4)O[C@@H]3C)O[C@@H]2C)O[C@H](C)[C@H]1O.CC(=O)O[C@H]1[C@@H](O)C[C@@H](O[C@H]2[C@@H](O)C[C@H](O[C@H]3[C@@H](O)C[C@H](O[C@H]4CC[C@@]5(C)[C@H](CC[C@@H]6[C@@H]5C[C@@H](O)[C@]5(C)[C@@H](C7=CC(=O)OC7)CC[C@]65O)C4)O[C@@H]3C)O[C@@H]2C)O[C@@H]1C | 54.1 nM (active) | 63.7 nM (active) | 617 nM (active) | 15.3 nM (active) | 16.7 nM (active) | 44.3 nM (active) | 11.9 nM (active) | 29.9 nM (active) | 47.2 nM (active) | 42.5 nM (active) | 25.1 nM (active) | 29.1 nM (active) | 39.5 nM (active) | 45.5 nM (active) | 29.9 nM (active) | 32.2 nM (active) | 23.6 nM (active) | 33 nM (active) | 30.8 nM (active) |
| COc1ccc2c(c1)/C(=C\c1c(C)nc3sc(C)cn13)C(=O)N2 | 1410 nM (inactive) | 3330 nM (inactive) | 455 nM (active) | 12700 nM (inactive) | 778 nM (active) | 409 nM (active) | 297 nM (active) | 3180 nM (inactive) | 140 nM (active) | 1660 nM (inactive) | 1220 nM (inactive) | 446 nM (active) | 581 nM (active) | 9890 nM (inactive) | 309 nM (active) | 385 nM (active) | 172 nM (active) | 3240 nM (inactive) | 2130 nM (inactive) |
